According to patent US20120121591A1 (priority 2009, published 2012):
Where two headings read alike, the source gives them in different places.

What was measured:
Type in all cases: cell-based
hKv1.3 = hKv1.3 (Homo sapiens, UniProt P22001); test: cell-based
[1] = test system: IFN-g secretion from T cells in human whole blood
[2] = test system: IL-2 secretion from T cells in human whole blood; conditions: read-out: WB (IL-2) IC50 (nM, Avg)
[3] = read-out: WB (IFNg) IC50 (nM, Avg)

Sequence of hKv1.3 (P22001 whole entry): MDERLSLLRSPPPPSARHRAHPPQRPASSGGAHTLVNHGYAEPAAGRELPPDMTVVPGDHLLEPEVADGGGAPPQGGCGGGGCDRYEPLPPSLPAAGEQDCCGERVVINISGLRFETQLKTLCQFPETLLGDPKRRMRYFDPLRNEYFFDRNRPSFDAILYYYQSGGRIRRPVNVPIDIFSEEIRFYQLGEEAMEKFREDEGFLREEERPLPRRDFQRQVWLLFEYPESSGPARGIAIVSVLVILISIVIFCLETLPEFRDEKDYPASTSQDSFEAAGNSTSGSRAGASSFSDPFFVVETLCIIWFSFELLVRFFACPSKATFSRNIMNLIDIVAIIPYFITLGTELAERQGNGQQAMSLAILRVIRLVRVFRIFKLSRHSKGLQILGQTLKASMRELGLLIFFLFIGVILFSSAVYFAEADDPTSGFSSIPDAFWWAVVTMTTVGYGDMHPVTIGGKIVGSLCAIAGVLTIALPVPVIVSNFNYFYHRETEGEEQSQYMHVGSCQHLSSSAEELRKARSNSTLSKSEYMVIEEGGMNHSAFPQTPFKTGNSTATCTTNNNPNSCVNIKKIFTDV

Compound	IC50 (hKv1.3; Kv1.3 (IWQ) IC50 (nM, Avg))	other results
CC[C@H](C)[C@@H]1NC(=O)[C@@H](NC(=O)[C@H](CO)NC(=O)[C@@H](N)CCCNC(=N)N)CSSC[C@@H](C(=O)O)NC(=O)[C@H]([C@@H](C)O)NC(=O)CNC(=O)[C@@H]2CSSC[C@@H]3NC(=O)[C@H](CCC(N)=O)NC(=O)[C@H](Cc4ccccc4)NC(=O)[C@H](C)NC(=O)[C@H]([C@@H](C)O)NC(=O)[C@H](CSSC[C@H](NC(=O)[C@H](Cc4ccccc4)NC(=O)[C@H](CO)NC(=O)[C@H](CC(C)C)NC(=O)[C@H](CCCNC(=N)N)NC(=O)[C@H](Cc4ccc(O)cc4)NC(=O)[C@H](CCCCN)NC(=O)[C@H](CCSC)NC(=O)[C@H](CO)NC(=O)[C@H](Cc4cnc[nH]4)NC(=O)[C@H](CCCCN)NC3=O)C(=O)N[C@@H](CCCNC(=N)N)C(=O)N[C@@H](CCCCN)C(=O)N[C@@H]([C@@H](C)O)C(=O)N2)NC(=O)[C@H](CCCNC(=N)N)NC(=O)[C@H](CO)NC(=O)[C@H](CCCCN)NC(=O)[C@@H]2CCCN2C(=O)[C@H]([C@@H](C)CC)NC(=O)[C@H]([C@@H](C)O)NC(=O)[C@H](CCCCN)NC1=O [[Lys5]ShK]	3.3 nM	–
CC[C@H](C)[C@@H]1NC(=O)[C@@H](NC(=O)[C@H](CO)NC(=O)[C@@H](N)CCCNC(=N)N)CSSC[C@@H](C(=O)O)NC(=O)[C@H]([C@@H](C)O)NC(=O)CNC(=O)[C@@H]2CSSC[C@@H]3NC(=O)[C@H](CCC(N)=O)NC(=O)[C@H](Cc4ccccc4)NC(=O)[C@H](C)NC(=O)[C@H]([C@@H](C)O)NC(=O)[C@H](CSSC[C@H](NC(=O)[C@H](Cc4ccccc4)NC(=O)[C@H](CO)NC(=O)[C@H](CC(C)C)NC(=O)[C@H](CCCNC(=N)N)NC(=O)[C@H](Cc4ccc(O)cc4)NC(=O)[C@H](CCCCN)NC(=O)[C@H](CCSC)NC(=O)[C@H](Cc4cccc5ccccc45)NC(=O)[C@H](Cc4cnc[nH]4)NC(=O)[C@H](CCCCN)NC3=O)C(=O)N[C@@H](CCCNC(=N)N)C(=O)N[C@@H](CCCCN)C(=O)N[C@@H]([C@@H](C)O)C(=O)N2)NC(=O)[C@H](CCCNC(=N)N)NC(=O)[C@H](CO)NC(=O)[C@H](CCCCN)NC(=O)[C@@H]2CCCN2C(=O)[C@H]([C@@H](C)CC)NC(=O)[C@H]([C@@H](C)O)NC(=O)[C@H](CC(=O)O)NC1=O [[1-Nal20]ShK]	2.11 nM	–
CC[C@H](C)[C@@H]1NC(=O)[C@@H](NC(=O)[C@H](CO)NC(=O)[C@@H](N)CCCNC(=N)N)CSSC[C@@H](C(=O)O)NC(=O)[C@H]([C@@H](C)O)NC(=O)CNC(=O)[C@@H]2CSSC[C@@H]3NC(=O)[C@H](CCC(N)=O)NC(=O)[C@H](Cc4ccccc4)NC(=O)[C@H](C)NC(=O)[C@H]([C@@H](C)O)NC(=O)[C@H](CSSC[C@H](NC(=O)[C@H](Cc4ccccc4)NC(=O)[C@H](CO)NC(=O)[C@H](CC(C)C)NC(=O)[C@H](CCCNC(=N)N)NC(=O)[C@H](CCCNC(=N)N)NC(=O)[C@H](CCCCN)NC(=O)[C@H](CCSC)NC(=O)[C@H](CO)NC(=O)[C@H](Cc4cnc[nH]4)NC(=O)[C@H](CCCCN)NC3=O)C(=O)N[C@@H](CCCNC(=N)N)C(=O)N[C@@H](CCCCN)C(=O)N[C@@H]([C@@H](C)O)C(=O)N2)NC(=O)[C@H](CCCNC(=N)N)NC(=O)[C@H](CO)NC(=O)[C@H](CCCCN)NC(=O)[C@@H]2CCCN2C(=O)[C@H]([C@@H](C)CC)NC(=O)[C@H]([C@@H](C)O)NC(=O)[C@H](CC(=O)O)NC1=O [[Arg23]ShK]	0.154 nM	–
CC[C@H](C)[C@@H]1NC(=O)[C@@H](NC(=O)[C@H](CO)NC(=O)[C@@H](N)CCCNC(=N)N)CSSC[C@@H](C(=O)O)NC(=O)[C@H](CCC(=O)O)NC(=O)CNC(=O)[C@@H]2CSSC[C@@H]3NC(=O)[C@H](CCC(N)=O)NC(=O)[C@H](Cc4ccccc4)NC(=O)[C@H](C)NC(=O)[C@H]([C@@H](C)O)NC(=O)[C@H](CSSC[C@H](NC(=O)[C@H](Cc4ccccc4)NC(=O)[C@H](CO)NC(=O)[C@H](CC(C)C)NC(=O)[C@H](CCCNC(=N)N)NC(=O)[C@H](Cc4ccc(O)cc4)NC(=O)[C@H](CCCCN)NC(=O)[C@H](CCSC)NC(=O)[C@H](CO)NC(=O)[C@H](Cc4c[nH]cn4)NC(=O)[C@H](CCCCN)NC3=O)C(=O)N[C@@H](CCCNC(=N)N)C(=O)N[C@@H](CCCCN)C(=O)N[C@@H]([C@@H](C)O)C(=O)N2)NC(=O)[C@H](CCCNC(=N)N)NC(=O)[C@H](CO)NC(=O)[C@H](CCCCN)NC(=O)[C@@H]2CCCN2C(=O)[C@H]([C@@H](C)CC)NC(=O)[C@H]([C@@H](C)O)NC(=O)[C@H](CC(=O)O)NC1=O [[Glu34]ShK]	0.067 nM	IC50 ([1]; read-out: WB (IFNg) IC5- (nM, Avg)): 0.123 nM
CC[C@H](C)[C@@H]1NC(=O)[C@@H](NC(=O)[C@H](CO)NC(=O)[C@@H](N)CCCNC(=N)N)CSSC[C@@H](C(=O)O)NC(=O)[C@H](Cc2cccc3ccccc23)NC(=O)CNC(=O)[C@@H]2CSSC[C@@H]3NC(=O)[C@H](CCC(N)=O)NC(=O)[C@H](Cc4ccccc4)NC(=O)[C@H](C)NC(=O)[C@H]([C@@H](C)O)NC(=O)[C@H](CSSC[C@H](NC(=O)[C@H](Cc4ccccc4)NC(=O)[C@H](CO)NC(=O)[C@H](CC(C)C)NC(=O)[C@H](CCCNC(=N)N)NC(=O)[C@H](Cc4ccc(O)cc4)NC(=O)[C@H](CCCCN)NC(=O)[C@H](CCSC)NC(=O)[C@H](CO)NC(=O)[C@H](Cc4cnc[nH]4)NC(=O)[C@H](CCCCN)NC3=O)C(=O)N[C@@H](CCCNC(=N)N)C(=O)N[C@@H](CCCCN)C(=O)N[C@@H]([C@@H](C)O)C(=O)N2)NC(=O)[C@H](CCCNC(=N)N)NC(=O)[C@H](CO)NC(=O)[C@H](CCCCN)NC(=O)[C@@H]2CCCN2C(=O)[C@H]([C@@H](C)CC)NC(=O)[C@H]([C@@H](C)O)NC(=O)[C@H](CC(=O)O)NC1=O [[1-Nal34]ShK]	0.077 nM	–
CC[C@H](C)[C@@H]1NC(=O)[C@@H](NC(=O)[C@H](CO)NC(=O)[C@@H](N)CCCNC(=N)N)CSSC[C@@H](C(=O)O)NC(=O)[C@H]([C@@H](C)O)NC(=O)CNC(=O)[C@@H]2CSSC[C@@H]3NC(=O)[C@H](CCC(N)=O)NC(=O)[C@H](Cc4ccccc4)NC(=O)[C@H](C)NC(=O)[C@H]([C@@H](C)O)NC(=O)[C@H](CSSC[C@H](NC(=O)[C@H](Cc4ccccc4)NC(=O)[C@H](CO)NC(=O)[C@H](CC(C)C)NC(=O)[C@H](CCCNC(=N)N)NC(=O)[C@H](Cc4ccc(O)cc4)NC(=O)[C@H](CCCNC(=N)N)NC(=O)[C@H](CCSC)NC(=O)[C@H](CO)NC(=O)[C@H](Cc4cnc[nH]4)NC(=O)[C@H](CCCCN)NC3=O)C(=O)N[C@@H](CCCNC(=N)N)C(=O)N[C@@H](CCCCN)C(=O)N[C@@H]([C@@H](C)O)C(=O)N2)NC(=O)[C@H](CCCNC(=N)N)NC(=O)[C@H](CO)NC(=O)[C@H](CCCCN)NC(=O)[C@@H]2CCCN2C(=O)[C@H]([C@@H](C)CC)NC(=O)[C@H]([C@@H](C)O)NC(=O)[C@H](CC(=O)O)NC1=O [[Arg22]ShK]	18.7 nM	–
CC[C@H](C)[C@@H]1NC(=O)[C@@H](NC(=O)[C@H](CO)NC(=O)[C@@H](N)CCCNC(=N)N)CSSC[C@@H](C(=O)O)NC(=O)[C@H]([C@@H](C)O)NC(=O)CNC(=O)[C@@H]2CSSC[C@@H]3NC(=O)[C@H](CCCCN)NC(=O)[C@H](Cc4ccccc4)NC(=O)[C@H](C)NC(=O)[C@H]([C@@H](C)O)NC(=O)[C@H](CSSC[C@H](NC(=O)[C@H](Cc4cccc5ccccc45)NC(=O)[C@H](CO)NC(=O)[C@H](CC(C)C)NC(=O)[C@H](CCCNC(=N)N)NC(=O)[C@H](Cc4ccc(O)cc4)NC(=O)[C@H](CCCCN)NC(=O)[C@H](CCSC)NC(=O)[C@H](CO)NC(=O)[C@H](Cc4c[nH]cn4)NC(=O)[C@H](CCCCN)NC3=O)C(=O)N[C@@H](CCCCN)C(=O)N[C@@H](CCCNC(=N)N)C(=O)N[C@@H]([C@@H](C)O)C(=O)N2)NC(=O)[C@H](CCCNC(=N)N)NC(=O)[C@H](CO)NC(=O)[C@H](CCCCN)NC(=O)[C@@H]2CCCN2C(=O)[C@H]([C@@H](C)CC)NC(=O)[C@H]([C@@H](C)O)NC(=O)[C@H](CC(=O)O)NC1=O [[Lys16,29; 1-Na127;Arg30]ShK]	–	IC50 [2]: 3.37 nM; IC50 [1, 3]: 3.83 nM
20kDaPEG-[-Nal16]ShK (RSCIDTIPKSRCTAFXCKHSMKYRLSFCRKTCGTC; 20 kDa PEG; 1-Nal16; ShK PEGylated toxin peptide analog; PEGylated; 3-(1-naphthyl)alanine)	–	IC50 (hKv1.3; read-out: Kv1.3 (IWQ) IC50 (nM, Avg)): 39.1 nM
CC[C@H](C)[C@@H]1NC(=O)[C@H]([C@@H](C)O)NC(=O)[C@H](CC(=O)O)NC(=O)[C@H](CCCNC(=N)N)NC(=O)[C@@H](NC(=O)[C@H](CO)NC(=O)[C@@H](N)CCCNC(=N)N)CSSC[C@@H](C(=O)O)NC(=O)[C@H]([C@@H](C)O)NC(=O)CNC(=O)[C@@H]2CSSC[C@@H]3NC(=O)[C@H](CCC(N)=O)NC(=O)[C@H](Cc4ccccc4)NC(=O)[C@H](C)NC(=O)[C@H]([C@@H](C)O)NC(=O)[C@H](CSSC[C@H](NC(=O)[C@H](Cc4ccccc4)NC(=O)[C@H](CO)NC(=O)[C@H](CC(C)C)NC(=O)[C@H](CCCNC(=N)N)NC(=O)[C@H](Cc4ccc(O)cc4)NC(=O)[C@H](CCCCN)NC(=O)[C@H](CCSC)NC(=O)[C@H](CO)NC(=O)[C@H](Cc4c[nH]cn4)NC(=O)[C@H](CCCCN)NC3=O)C(=O)N[C@@H](CCCNC(=N)N)C(=O)N[C@@H](CCCCN)C(=O)N[C@@H]([C@@H](C)O)C(=O)N2)NC(=O)[C@H](CCCNC(=N)N)NC(=O)[C@H](CO)NC(=O)[C@H](CCCCN)NC(=O)[C@@H]2CCCN2C1=O [[Arg4]ShK]	–	IC50 [2]: 0.051 nM; IC50 [1, 3]: 0.081 nM
